For this assay, the system named is T1, TmXdhA.
T1 construct: native full gene from cDNA (578 residues, GMC dehydrogenase domain only, no cytochrome or CBM1); ORF start MQTASKL by primer; SEC-purified, contaminated with an A. niger hydrolase (A0A370CB09)
Put plainly: spectrophotometric reduction of […],4-benzoquinone at […] nm, Michaelis-Menten fit. Format: biochemical, Thermothelomyces myriococcoides. To be noted: 1 mM 1,4-benzoquinone, 50 mM ammonium acetate pH 5.5, 30 °C.
The term Km denotes the concentration of substrate that gives half-maximal velocity. As for `OC[C@H]1O[C@@H](O[C@H]2[C@H](O)[C@@H](O)C(O)O[C@@H]2CO)[C@H](O)[C@@H](O)[C@@H]1O` (stereo partly drawn) [C2, Cellobiose], the Km was found to be 360 ± 40 µM.
`OC[C@H]1O[C@@H](O[C@H]2[C@H](O)[C@@H](O)[C@H](O[C@H]3[C@H](O)[C@@H](O)C(O)O[C@@H]3CO)O[C@@H]2CO)[C@H](O)[C@@H](O)[C@@H]1O` (stereo partly drawn) [C3, Cellotriose]: the Km turned out to be 430 ± 40 µM.
With `OC[C@H]1O[C@@H](O[C@H]2[C@H](O)[C@@H](O)[C@H](O[C@H]3[C@H](O)[C@@H](O)[C@H](O[C@H]4[C@H](O)[C@@H](O)C(O)O[C@@H]4CO)O[C@@H]3CO)O[C@@H]2CO)[C@H](O)[C@@H](O)[C@@H]1O` (stereo partly drawn) [C4, Cellotetraose], the Km was 530 ± 40 µM.
Turning to `OC1OC[C@@H](O[C@@H]2OC[C@@H](O)[C@H](O)[C@H]2O)[C@H](O)[C@H]1O` (stereo partly drawn) [X2, Xylobiose], the Km was determined as 160 ± 10 µM.
Next, `OC1OC[C@@H](O[C@@H]2OC[C@@H](O[C@@H]3OC[C@@H](O)[C@H](O)[C@H]3O)[C@H](O)[C@H]2O)[C@H](O)[C@H]1O` (stereo partly drawn) [X3, Xylotriose]: 110 ± 10 µM; `OC1OC[C@@H](O[C@@H]2OC[C@@H](O[C@@H]3OC[C@@H](O[C@@H]4OC[C@@H](O)[C@H](O)[C@H]4O)[C@H](O)[C@H]3O)[C@H](O)[C@H]2O)[C@H](O)[C@H]1O` (stereo partly drawn) [X4, Xylotetraose]: 130 ± 10 µM.

Source of the values: article PMC9730589, “Characterization of a novel AA3_1 xylooligosaccharide dehydrogenase from Thermothelomyces myriococcoides CBS 398.93” (Biotechnology for Biofuels and Bioproducts, 2022).
